Results: patent US10683311B2 (priority 2015, dated 2020)

test: log P by HPLC on reversed-phase column (C18), EEC Directive 79/831 Annex V.A8; type: physicochemical; conditions: Method A: 40° C., 0.1% aqueous formic acid and acetonitrile
Procedure: In table 1, the log P values were determined in accordance with EEC Directive 79/831 Annex V.A8 by HPLC (High Performance Liquid Chromatography) on a reversed-phase column (C18), using the methods described below:
Method A: temperature: 40° C.; mobile phases: 0.1% aqueous formic acid and acetonitrile; linear gradient from 10% acetonitrile to 95% acetonitrile;
Method B: temperature: 40° C.; mobile phases: 0.001 molar ammonium acetate solution in water and acetonitrile; linear gradient from 10% acetonitrile to 95% acetonitrile.
Calibration was carried out using unbranched alkan-2-ones (comprising 3 to 16 carbon atoms) with known log P values (determination of the log P values by the retention times using linear interpolation between two successive alkanones). lambda-max-values were determined using UV-spectra from 200 nm to 400 nm and the peak values of the chromatographic signals.

| Compound | logP |
| --- | --- |
| Cc1nc2c(F)c(F)ccc2nc1Oc1ccc(F)cc1[Si](C)(C)C [I.100] | 5.57 |
| Cc1nc2c(F)c(F)ccc2nc1Oc1ccc(Cl)cc1[Si](C)(C)C [I.101] | 6.11 |
| Cc1nc2c(F)c(F)ccc2nc1Oc1ccc(Cl)cc1[Si](C)(C)O [I.102] | 4.01 |
| Cc1nc2c(F)c(F)ccc2nc1Oc1c(Cl)cccc1[Si](C)(C)O [I.103] | 3.96 |
| Cc1cccc([Si](C)(C)O)c1Oc1nc2ccc(F)c(F)c2nc1C [I.104] | 3.73 |
| Cc1nc2c(F)c(F)ccc2nc1Oc1cc(F)ccc1[Si](C)(C)O [I.105] | 3.58 |
| Cc1nc2c(F)c(F)ccc2nc1Oc1c(Cl)cccc1[Si](C)(C)C [I.106] | 6.07 |
| Cc1cccc([Si](C)(C)C)c1Oc1nc2ccc(F)c(F)c2nc1C [I.107] | 5.88 |
| Cc1nc2c(F)c(F)ccc2nc1Oc1cc(F)ccc1[Si](C)(C)C [I.108] | 5.57 |
| Cc1nc2ccccc2nc1Oc1cccc(F)c1[Si](C)(C)O [I.109] | 3.25 |
| Cc1nc2ccccc2nc1Oc1ccccc1[Si](C)(C)C [I.110] | 5.31 |
| Cc1nc2ccccc2nc1Oc1cccc(F)c1[Si](C)(C)C [I.111] | 5.45 |
| Cc1nc2ccccc2nc1Oc1ccccc1[Si](C)(C)O [I.112] | 3.01 |
| Cc1nc2ccccc2nc1Oc1cccc(F)c1[Si](C)(C)c1cccs1 [I.113] | 5.51 |
| COc1ccc([Si](C)(C)c2c(F)cccc2Oc2nc3ccccc3nc2C)cc1 [I.114] | 5.35 |
| Cc1nc2ccccc2nc1Oc1cccc(F)c1[Si](C)(C)c1ccccc1 [I.115] | 5.59 |
| C[Si](C)(O)c1c(F)cccc1Oc1cnc2ccsc2c1 [I.117] | 2.80 |
| C[Si](C)(C)c1c(F)cccc1Oc1cnc2ccsc2c1 [I.118] | 5.22 |
| C[Si](C)(O)c1c(F)cccc1Oc1cnc2sccc2c1 [I.119] | 3.09 |
| C[Si](C)(C)c1c(F)cccc1Oc1cnc2sccc2c1 [I.120] | 5.45 |
| C[Si](C)(O)c1c(F)cccc1Oc1cnc2ccnn2c1 [I.121] | 2.07 |
| C[Si](C)(C)c1c(F)cccc1Oc1cnc2ccnn2c1 [I.122] | 4.23 |

| Compound | logP |
| --- | --- |
| C[Si](C)(C)c1ccccc1Oc1cnc2ccnn2c1 [I.123] | 4.11 |
| C[Si](C)(C)c1ccccc1Oc1cnc2nccn2c1 [I.124] | 2.78 |
| C[Si](C)(O)c1ccccc1Oc1cnc2nccn2c1 [I.125] | 2.10 |
| C[Si](C)(O)c1ccccc1Oc1cnc2c(F)cnn2c1 [I.126] | 2.50 |
| C[Si](C)(O)c1c(F)cccc1Oc1cnc2c(F)cnn2c1 [I.127] | 2.60 |
| C[Si](C)(C)c1c(F)cccc1Oc1cnc2c(F)cnn2c1 [I.128] | 4.61 |
| C[Si](C)(C)c1ccccc1Oc1cnc2c(F)cnn2c1 [I.129] | 4.56 |
| Cc1c(Cc2ccccc2[Si](C)(C)C)cnc2ccccc12 [I.130] | 3.19 |
| C[Si](C)(C)c1c(F)cccc1Sc1cnc2ccccc2c1 [I.131] | 5.72 |
| C[Si](C)(C)c1c(F)cccc1[S+]([O-])c1cnc2ccccc2c1 (stereo not drawn) [I.132] | 3.63 |
| C[Si](C)(C)c1c(F)cccc1C(O)c1cnc2ccccc2c1 (stereo not drawn) [I.133] | 4.16 |
| Cc1nc2ccccc2cc1Oc1ccc(Cl)cc1[Si](C)(C)C [I.134] | 5.68 |
| Cc1nc2ccccc2cc1Oc1ccc(-c2ccccc2)cc1[Si](C)(C)C [I.135] | 6.27 |
| Cc1nc2ccccc2cc1Oc1ccc(C2CC2)cc1[Si](C)(C)C [I.136] | 5.68 |
| C=Cc1ccc(Oc2cc3ccccc3nc2C)c([Si](C)(C)C)c1 [I.137] | 5.51 |
| Cc1nc2ccccc2cc1Oc1ccc(-c2ccsc2)cc1[Si](C)(C)C [I.138] | 5.85 |
| Cc1nc2ccccc2cc1Cc1ccccc1[Si](C)(C)C [I.139] | 2.76 |
| Cc1nc2ccccc2cc1Cc1ccccc1[Si](C)(C)c1ccccc1 [I.140] | 2.88 |
| C[Si](C)(c1ccccc1)c1ccccc1Cc1cnc2cccnc2c1 [I.141] | 4.14 |
| C[Si](C)(Cc1ccccc1)c1ccccc1Cc1cnc2ccccc2c1 [I.142] | 4.94 |
| C[Si](C)(c1ccc(Cc2ccccc2)cc1)c1ccccc1Cc1cnc2ccccc2c1 [I.143] | 5.78 |
| Cc1nc2ccccc2cc1Oc1cccc(OC(F)(F)F)c1Br [IIa.25] | 4.30 |

same assay, conditions: logP Method A

| Compound | logP |
| --- | --- |
| Cc1nc2c(F)c(F)ccc2cc1Oc1cc([N+](=O)[O-])ccc1Br [II.06A] | 4.04 |

same assay, conditions: reversed-phase HPLC column (C18), Method A: 40° C., 0.1% aqueous formic acid and acetonitrile

| Compound | chromatographic logP |
| --- | --- |
| Fc1cccc(Oc2cnc3ccccc3c2)c1I [IIa.01, 3-(3-fluoro-2-iodophenoxy)quinoline] | 3.71 |
| Ic1ccccc1Oc1cnc2ccccc2c1 [IIa.02, 3-(2-iodophenoxy)quinoline] | 3.71 |
| Brc1ccccc1Oc1cnc2ccccc2c1 [IIa.03, 3-(2-bromophenoxy)quinoline] | 3.47 |
| Fc1cccc2cc(Oc3ccccc3Br)cnc12 [IIa.04, 3-(2-bromophenoxy)-8-fluoroquinoline] | 3.61 |
| Cc1nc2c(F)cccc2cc1Oc1ccccc1Br [IIa.05, 3-(2-bromophenoxy)-8-fluoro-2-methylquinoline] | 3.96 |
| Fc1ccc2cc(Oc3ccccc3Br)cnc2c1F [IIa.06, 3-(2-bromophenoxy)-7,8-difluoroquinoline] | 3.92 |
| Cc1nc2c(F)c(F)ccc2cc1Oc1ccccc1Br [IIa.07, 3-(2-bromophenoxy)-7,8-difluoro-2-methylquinoline] | 4.25 |
| Cc1nc2ccccc2cc1Oc1ccccc1Br [IIa.08, 3-(2-bromophenoxy)-2-methylquinoline] | 3.96 |
| Cc1nc2c(F)c(F)ccc2cc1Oc1c(F)cccc1Br [IIa.09, 3-(2-bromo-6-fluorophenoxy)-7,8-difluoro-2-methylquinoline] | 4.25 |
| Cc1nc2c(F)c(F)ccc2cc1Oc1cc(F)ccc1Br [IIa.10, 3-(2-bromo-5-fluorophenoxy)-7,8-difluoro-2-methylquinoline] | 4.34 |
| Fc1ccc(Oc2cnc3c(Cl)cccc3c2)c(Br)c1 [IIa.11, 3-(2-bromo-4-fluorophenoxy)-8-chloroquinoline] | 4.18 |
| Cc1nc2c(F)c(F)ccc2cc1Oc1ccc(F)cc1Br [IIa.12, 3-(2-bromo-4-fluorophenoxy)-7,8-difluoro-2-methylquinoline] | 4.25 |
| Cc1nc2ccccc2cc1Oc1ccc(F)cc1Br [IIa.13, 3-(2-bromo-4-fluorophenoxy)-2-methylquinoline] | 3.35 |
| COc1cccc(Oc2cc3ccc(F)c(F)c3nc2C)c1Br [IIa.14, 3-(2-bromo-3-methoxyphenoxy)-7,8-difluoro-2-methylquinoline] | 4.11 |
| Fc1cccc(Oc2cnc3c(F)c(F)ccc3c2)c1Br [IIa.15, 3-(2-bromo-3-fluorophenoxy)-7,8-difluoroquinoline] | 3.9 |
| Cc1nc2c(F)c(F)ccc2cc1Oc1cccc(F)c1Br [IIa.16, 3-(2-bromo-3-fluorophenoxy)-7,8-difluoro-2-methylquinoline] | 4.29 |
| Cc1c(Oc2cccc(F)c2Br)cnc2ccccc12 [IIa.17, 3-(2-bromo-3-fluorophenoxy)-4-methylquinoline] | 3.89 |
| Cc1nc2ccccc2cc1Oc1cccc(F)c1Br [IIa.18, 3-(2-bromo-3-fluorophenoxy)-2-methylquinoline] | 3.58 |
| Fc1cccc(Oc2cc3ccccc3nc2C(F)F)c1Br [IIa.19, 3-(2-bromo-3-fluorophenoxy)-2-(difluoromethyl)quinoline] | 3.99 |
| Cc1nc2c(F)c(F)ccc2cc1Oc1cccc(Cl)c1Br [IIa.20, 3-(2-bromo-3-chlorophenoxy)-7,8-difluoro-2-methylquinoline] | 4.72 |
| Cc1nc2ccccc2cc1Oc1cccc(Cl)c1Br [IIa.21, 3-(2-bromo-3-chlorophenoxy)-2-methylquinoline] | 3.99 |
| Fc1cccc(Nc2cc3ccccc3nc2C(F)F)c1Br [IIa.22, N-(2-bromo-3-fluorophenyl)-2-(difluoromethyl)quinolin-3-amine] | 4.34 |
| Fc1ccc(Oc2cnc3c(Cl)cccc3c2)c(Cl)c1 [IIa.23, 8-chloro-3-(2-chloro-4-fluorophenoxy)quinoline] | 4.11 |
| Cc1nc2c(F)c(F)ccc2cc1Oc1cccc(OC(F)(F)F)c1Br [IIa.24, 3-[2-bromo-3-(trifluoromethoxy)phenoxy]-7,8-difluoro-2-methylquinoline] | 4.9 |
| Cc1nc2ccccc2cc1Oc1ccc(Cl)cc1Br [IIa.26, 3-(2-bromo-4-chlorophenoxy)-2-methylquinoline] | 4.13 |

same assay, conditions: reversed-phase HPLC column (C18), Method B: 40° C., 0.001 molar ammonium acetate solution in water and acetonitrile

| Compound | chromatographic logP |
| --- | --- |
| Brc1c(COC2CCCCO2)cccc1Nc1cnc2ccccc2c1 (stereo not drawn) [II.04A, N-{2-bromo-3-[(tetrahydro-2H-pyran-2-yloxy)methyl]phenyl}quinolin-3-amine] | 4.13 |

same assay, conditions: reversed-phase HPLC column (C18), logP Method A

| Compound | chromatographic logP |
| --- | --- |
| O=Cc1cccc(Oc2cnc3ccccc3c2)c1I [II.01A] | 3.29 |
| O=Cc1cccc(Oc2cnc3c(F)c(F)ccc3n2)c1Br [II.01B] | 3.48 |
| OCc1cccc(Oc2cnc3ccccc3c2)c1I [II.02A] | 2.59 |
| Cc1nc2ccccc2cc1Oc1cccc(CCO)c1Br [II.03A] | 2.14 |
| Cc1nc2ccccc2cc1Oc1cccc(CCCl)c1Br [II.08A] | 3.99 |

same assay, conditions: reversed-phase HPLC column (C18), logP Method B

| Compound | chromatographic logP |
| --- | --- |
| Brc1c(COC2CCCCO2)cccc1Nc1cnc2ccccc2c1 (stereo not drawn) [II.04A, N-{2-bromo-3-[(tetrahydro-2H-pyran-2-yloxy)methyl]phenyl}quinolin-3-amine] | 4.13 |
| Ic1c(COC2CCCCO2)cccc1Oc1cnc2ccccc2c1 (stereo not drawn) [II.05A] | 4.56 |
